Source: PubChem BioAssay AID330 (DTP/NCI, 2004)
Where “and” joins values, the source holds several entries; their conditions need not be identical. Equal entries are not always repeated. Toxic doses and inconclusive results are not listed.

Test system: P388 leukemia ip, CD2F1 mice, survival T/C
Experiment: NCI In Vivo Anticancer Drug Screen. Data for tumor model P388 Leukemia (intraperitoneal) in CD2F1 (CDF1) mice
Conditions: endpoint: median survival time, higher = longer survival
In short: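 Mice carrying the transplanted tumor received test compound or vehicle. Survival was recorded in each group, and the value is the treated-group measurement divided by that of the vehicle-treated control group.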

[1] = dose: 50.0 mg/kg/injection, schedule: Q01DX005 (ip), vehicle: Klucel (hydroxypropylcellulose) (HPC)
[2] = dose: 100.0 mg/kg/injection, schedule: Q01DX001 (ip), vehicle: saline
[3] = dose: 200.0 mg/kg/injection, schedule: Q01DX001 (ip), vehicle: saline
[4] = dose: 60.0 mg/kg/injection, schedule: Q01DX005 (ip), vehicle: saline with Tween-80
[5] = dose: 120.0 mg/kg/injection, schedule: Q01DX005 (ip), vehicle: saline with Tween-80
[6] = dose: 240.0 mg/kg/injection, schedule: Q01DX005 (ip), vehicle: saline with Tween-80
[7] = dose: 50.0 mg/kg/injection, schedule: Q01DX009 (ip), vehicle: saline
[8] = dose: 100.0 mg/kg/injection, schedule: Q01DX009 (ip), vehicle: saline
[9] = dose: 50.0 mg/kg/injection, schedule: Q01DX009 (ip), vehicle: saline with Tween-80
[10] = dose: 100.0 mg/kg/injection, schedule: Q01DX009 (ip), vehicle: saline with Tween-80
[11] = dose: 200.0 mg/kg/injection, schedule: Q01DX009 (ip), vehicle: saline with Tween-80
[12] = dose: 25.0 mg/kg/injection, schedule: Q01DX005 (ip), vehicle: saline with Tween-80
[13] = dose: 50.0 mg/kg/injection, schedule: Q01DX005 (ip), vehicle: saline with Tween-80
[14] = dose: 200.0 mg/kg/injection, schedule: Q01DX005 (ip), vehicle: saline with Tween-80
[15] = dose: 100.0 mg/kg/injection, schedule: Q01DX005 (ip), vehicle: saline with Tween-80

SMILES: COc1ccc2cc3n(c(=N)c2c1OC)CCc1cc2c(cc1-3)OCO2
- T/C (dose: 0.63 mg/kg/injection, schedule: Q01DX009 (ip), vehicle: water): 101 % of control
- T/C (dose: 1.25 mg/kg/injection, schedule: Q01DX009 (ip), vehicle: water): 110 % of control
- T/C (dose: 2.5 mg/kg/injection, schedule: Q01DX009 (ip), vehicle: water): 105 % of control
- T/C (dose: 5.0 mg/kg/injection, schedule: Q01DX009 (ip), vehicle: water): 110 % of control
- T/C (dose: 10.0 mg/kg/injection, schedule: Q01DX009 (ip), vehicle: water): 110 % of control
- T/C (dose: 20.0 mg/kg/injection, schedule: Q01DX009 (ip), vehicle: water): 110 % of control

SMILES: CNC(=O)O/N=C(\SC)C(=O)N(C)C
- T/C (dose: 0.87 mg/kg/injection, schedule: Q01DX005 (ip), vehicle: saline): 102 % of control
- T/C (dose: 1.75 mg/kg/injection, schedule: Q01DX005 (ip), vehicle: saline): 100 % of control

SMILES: NC(=O)c1csc(C2OC3COP(=O)(O)OC3C2O)n1 (stereo unspecified)
- T/C (dose: 12.5 mg/kg/injection, schedule: Q01DX005 (ip), vehicle: water): 105 % of control
- T/C (dose: 25.0 mg/kg/injection, schedule: Q01DX005 (ip), vehicle: water): 105 % of control
- T/C (dose: 50.0 mg/kg/injection, schedule: Q01DX005 (ip), vehicle: water): 114 % of control and 118 % of control
- T/C (dose: 100.0 mg/kg/injection, schedule: Q01DX005 (ip), vehicle: water): 123 % of control and 124 % of control
- T/C (dose: 200.0 mg/kg/injection, schedule: Q01DX005 (ip), vehicle: water): 152 % of control
- T/C (dose: 400.0 mg/kg/injection, schedule: Q01DX005 (ip), vehicle: water): 155 % of control

SMILES: N#CC1CCCC(CCc2ccccc2)(c2ccccc2)C1=O (stereo unspecified)
- T/C (dose: 50.0 mg/kg/injection, schedule: Q01DX009 (ip), vehicle: Klucel (hydroxypropylcellulose) (HPC)): 101 % of control
- T/C (dose: 100.0 mg/kg/injection, schedule: Q01DX009 (ip), vehicle: Klucel (hydroxypropylcellulose) (HPC)): 104 % of control
- T/C (dose: 200.0 mg/kg/injection, schedule: Q01DX009 (ip), vehicle: Klucel (hydroxypropylcellulose) (HPC)): 98 % of control

SMILES: CCN(CC)c1ccc(NC(c2ccccc2)C(O)c2ccccc2)cc1 (stereo unspecified)
- T/C [1]: 96 % of control
- T/C (dose: 100.0 mg/kg/injection, schedule: Q01DX005 (ip), vehicle: Klucel (hydroxypropylcellulose) (HPC)): 104 % of control

SMILES: CON=C1C(C)(C)C(=NOC)C1(C)C
- T/C (dose: 12.5 mg/kg/injection, schedule: Q01DX005 (ip), vehicle: Klucel (hydroxypropylcellulose) (HPC)): 90 % of control
- T/C (dose: 25.0 mg/kg/injection, schedule: Q01DX005 (ip), vehicle: Klucel (hydroxypropylcellulose) (HPC)): 86 % of control
- T/C [1]: 99 % of control

SMILES: ONC1CC(NO)CC(NO)C1 (stereo unspecified)
- T/C [2]: 117 % of control
- T/C [3]: 110 % of control

SMILES: N#Cc1nc(CC(=O)c2ccc(Cl)c(Cl)c2)c(CC(=O)c2ccc(Cl)c(Cl)c2)nc1C#N
- T/C [4]: 114 % of control
- T/C [5]: 120 % of control
- T/C [6]: 86 % of control

SMILES: CCCCCCN(CCCCCC)/C(N)=N/O
- T/C (dose: 5.0 mg/kg/injection, schedule: Q01DX009 (ip), vehicle: saline with Tween-80): 113 % of control
- T/C (dose: 10.0 mg/kg/injection, schedule: Q01DX009 (ip), vehicle: saline with Tween-80): 105 % of control
- T/C (dose: 20.0 mg/kg/injection, schedule: Q01DX009 (ip), vehicle: saline with Tween-80): 116 % of control

SMILES: CC1=NN(c2cccc(S(=O)(=O)O)c2)C(=O)C1N=Nc1cc(Cl)cc(S(=O)(=O)O)c1O.CC1=NN(c2cccc(S(=O)(=O)O)c2)C(=O)C1N=Nc1cc(Cl)cc(S(=O)(=O)O)c1O.[Cr] (stereo unspecified)
- T/C [7]: 111 % of control and 119 % of control
- T/C [8]: 120 % of control and 122 % of control
- T/C (dose: 200.0 mg/kg/injection, schedule: Q01DX009 (ip), vehicle: saline): 123 % of control
- T/C (dose: 400.0 mg/kg/injection, schedule: Q01DX009 (ip), vehicle: saline): 122 % of control

SMILES: COc1cc2c3cc1Oc1cc(ccc1O)C[C@@H]1c4c(cc(OC)c(O)c4Oc4ccc(cc4)C[C@@H]3[N+](C)(C)CC2)CC[N+]1(C)C
- T/C (dose: 0.06 mg/kg/injection, schedule: Q01DX009 (ip), vehicle: saline with Tween-80): 96 % of control
- T/C (dose: 0.13 mg/kg/injection, schedule: Q01DX009 (ip), vehicle: saline with Tween-80): 92 % of control
- T/C (dose: 0.25 mg/kg/injection, schedule: Q01DX009 (ip), vehicle: saline with Tween-80): 89 % of control

SMILES: O=[N+]([O-])c1ccc(SC2=NCCN2Cc2ccccc2)c(Cl)c1
- T/C [9]: 88 % of control
- T/C [10]: 101 % of control
- T/C [11]: 94 % of control

SMILES: Nc1nc(=S)c2ncn(C3OC(CO)C(O)C3O)c2[nH]1 (stereo unspecified)
- T/C (dose: 2.0 mg/kg/injection, schedule: Q01DX010 (ip), vehicle: saline): 168 % of control
- T/C (dose: 8.0 mg/kg/injection, schedule: Q01DX010 (ip), vehicle: saline): 118 % of control
- T/C [12]: 104 % of control
- T/C [13]: 120 % of control
- T/C (dose: 100.0 mg/kg/injection, schedule: Q04DX003 (ip), vehicle: saline sonified): 122 % of control
- T/C (dose: 132.0 mg/kg/injection, schedule: Q04DX003 (ip), vehicle: saline with Tween-80): 117 % of control
- T/C [14]: 150 % of control and 158 % of control
- T/C (dose: 400.0 mg/kg/injection, schedule: Q04DX003 (ip), vehicle: saline sonified): 86 % of control

SMILES: C=C(C#N)C1OC2OC(C)(C)OC2C1OCCCCCCCC (stereo unspecified)
- T/C (dose: 100.0 mg/kg/injection, schedule: Q04DX002 (ip), vehicle: saline with Tween-80): 106 % of control
- T/C (dose: 200.0 mg/kg/injection, schedule: Q04DX002 (ip), vehicle: saline with Tween-80): 106 % of control

SMILES: O=c1cccc(Cl)[nH]1
- T/C [10]: 100 % of control
- T/C [11]: 95 % of control
- T/C (dose: 400.0 mg/kg/injection, schedule: Q01DX009 (ip), vehicle: saline with Tween-80): 100 % of control

SMILES: c1ccc(Cn2ccnc2)nc1
- T/C (dose: 50.0 mg/kg/injection, schedule: Q04DX003 (ip), vehicle: saline): 103 % of control
- T/C (dose: 100.0 mg/kg/injection, schedule: Q04DX003 (ip), vehicle: saline): 100 % of control
- T/C (dose: 200.0 mg/kg/injection, schedule: Q04DX003 (ip), vehicle: saline): 101 % of control

SMILES: COC1=C(N)C(=O)c2nc(-c3ccccc3N)ccc2C1=O
- T/C [7]: 121 % of control
- T/C [8]: 120 % of control

SMILES: CCCCN(CCCC)CC(O)c1ccc(OCc2ccccc2)c2ccccc12 (stereo unspecified)
- T/C [13]: 102 % of control
- T/C [15]: 102 % of control
- T/C [14]: 102 % of control

SMILES: O=C1NN=C(c2ccccc2)SC1c1ccccc1 (stereo unspecified)
- T/C (dose: 12.5 mg/kg/injection, schedule: Q01DX005 (ip), vehicle: saline with Tween-80): 93 % of control
- T/C [12]: 95 % of control
- T/C [13]: 90 % of control and 92 % of control
- T/C [14]: 90 % of control

SMILES: Cc1cc(C)c(C#N)c(Sc2nc(C)c([N+](=O)[O-])c(C)c2C#N)n1
- T/C [13]: 96 % of control
- T/C [15]: 100 % of control
- T/C [14]: 102 % of control

SMILES: CC(=O)Nc1nc(C(C)(C)C)c([N+](=O)[O-])s1
- T/C [9]: 95 % of control
- T/C [10]: 104 % of control
- T/C [11]: 95 % of control

SMILES: CN(C)c1ccc(C(c2cc3c(cc2O)OCO3)N2CCN(C(c3ccc(N(C)C)cc3)c3cc4c(cc3O)OCO4)CC2)cc1 (stereo unspecified)
- T/C (dose: 60.0 mg/kg/injection, schedule: Q01DX005 (ip), vehicle: saline): 96 % of control
- T/C (dose: 120.0 mg/kg/injection, schedule: Q01DX005 (ip), vehicle: saline): 100 % of control
- T/C (dose: 240.0 mg/kg/injection, schedule: Q01DX005 (ip), vehicle: saline): 99 % of control

SMILES: Nc1ccccc1C(=O)CCc1ccccc1
- T/C [4]: 100 % of control
- T/C [5]: 99 % of control
- T/C [6]: 97 % of control

SMILES: COC1=CCCC(C(C)=O)C1Sc1ccccc1 (stereo unspecified)
- T/C [2]: 100 % of control
- T/C [3]: 102 % of control
- T/C (dose: 400.0 mg/kg/injection, schedule: Q01DX001 (ip), vehicle: saline): 100 % of control

SMILES: CCOC(=O)c1noc(Oc2ccc(Cl)cc2Cl)n1
- T/C [4]: 93 % of control
- T/C [5]: 97 % of control
- T/C [6]: 90 % of control

SMILES: C[N+]1=P(C)(C)N=P(C)(C)[N+](C)=P(C)(C)N=P1(C)C
- T/C (dose: 12.5 mg/kg/injection, schedule: Q01DX009 (ip), vehicle: saline): 95 % of control
- T/C (dose: 25.0 mg/kg/injection, schedule: Q01DX009 (ip), vehicle: saline): 95 % of control
- T/C [7]: 116 % of control and 95 % of control
